By Cmax is commonly meant the maximum level reached in the sampled fluid or tissue. In general, Tmax refers to the time at which the peak concentration occurs. The term Vd denotes the apparent volume that relates the amount in the body to the concentration in plasma or blood. Low readings indicate confinement near the circulation, high ones extensive tissue distribution. The clearance is a measure of how efficiently the substance is removed, as volume per time. A high value points to efficient removal. Usually bioavailability stands for dose-corrected exposure relative to a reference, in per cent. Lower therefore signals little systemic uptake.

The test system of series [1] is IFNa pSTAT1. Put plainly: Phosphorylation of STAT1 inhibition in HMC3 cells with HTRF assay. Type of series: cell-based. Particulars: Homo sapiens, HMC3 microglia cells, 50ng/mL hINFα 1 hour, read-out: HTRF_HMC3 IC 50 (IFNa pSTAT1). The method, then: Seeding HMC3 cells into 96-well plate and incubate overnight. Pre-stimulation with recombinant human IFNα (Sino biological, H08Y), treat cells with compound with different concentration for 1hr. After compound treatment, stimulate cells with 50ng/mL hINFα for another 1 hour (for CCF-STTG1 cells IFNα induction time is 30 mins). After compound treatment and cytokine stimulation, dump old medium and lyse cells with supplemented lysis buffer provided by the HTRF kit (Revvity, 63ADK026PEG) for 30 min at room temperature under shaking. After homogenization by pipetting up and down, transfer 16 µL of cell lysate from the 96-well cell-culture plate to a small volume white 384-well plate, and then add 4 µL of pre-mixed two ready-to-use antibody working solution into each wells. Cover the plate with a plate sealer and incubate it overnight at room temperature. Read the fluorescence emission at two different wavelengths (665nm and 620nm) on microplate reader (Molecular Device, SpectraMax i3X). Collect data and analyzed with GraphPad Prism.

The subject of a further series is Caco-2 cell lines. Kind of series: Caco-2 cell permeability. Type of series: in vitro ADME. Particulars: Caco-2; result in words.
Series [2] in a line: Mice colon pharmacokinetic studies. Type of series: in vivo. The settings on record: mouse, female Balb/c mice, oral gavage, 10 mg/kg; for half-life: read-out: Plasma T1/2 (converted). The method, then: Pharmacokinetic studies were investigated using female Balb/c mice to determine plasma and colon exposure of tested compounds. Compounds were administrated via oral gavage in a formulation of 0.5% Methocel (A4M) + 0.1% Tween80 in water to Balb/c mic. Animals were anesthetized at the designated time points, plasma, colon tissue and colonic contents samples were collected. Tissue samples were homogenized using MeOH : PBS(1:1). All samples were analyzed by LC-MS/MS.

For series [3], the system named is IFNa pSTAT1. Kind of series: Phosphorylation of STAT1 inhibition in CCF-STTG1 cells by Jess. The settings on record: Homo sapiens, 0.5 h; CCF-STTG1 astrocyte cells, IFNα induction 30 mins, Jess western; read-out: Jess_CCF-STTG1 IC50 (IFNa pSTAT1). Type of series: cell-based. The method, then: Seeding HMC3 cells into 12-well plate and incubate overnight. Pre-stimulation with recombinant human IFNα (Sino biological, H08Y), treat cells with compound with different concentration for 1hr. After compound treatment, stimulate HMC3 cells with 50ng/mL hINFα for another 1 hour (for CCF-STTG1 cells IFNα induction time is 30 mins). And then wash cells with DPBS once gently and lyse cells with pre-cooled RIPA buffer (Sigma, R0278-500ML) for 30min on ice to harvest cells. Centrifuge cell lysate for 20 mins at 12000rpm with freezer centrifuge (Thermo Scientific, Heraeus Fresco 21) to extract protein. Prepare samples with Jess Simple Wes kit (SM-WO04) and then run western blot on Jess simple western system (Protein simple, JS-4631). Collect data and analyzed with GraphPad Prism.

Series [4] can be described thus: Pharmacokinetic study in rats. Type of series: in vivo. Particulars: rat, plasma, Sprague-Dawley rats, solution. The method, then: Pharmacokinetic profiles of test articles were evaluated in fasted mouse, Sprague-Dawley rats and Beagle dogs. After dosing, blood samples were collected at each time point. For IV injection group, time points were set at 5, 15, 30 min, and then 1, 2, 4, 8 and 24 hours after dosing. For oral gavage group,#time points were set at 15, 30 min, and then 1, 2, 4, 8, and 24 hours. Blood was collected into appropriately labeled tubes containing K2EDTA as the anticoagulant. Plasma was obtained within 1 hours of blood collection by centrifugation at 8000×g and 4 °C for 6 minutes, and then stored at -20 °C until analyzed by LC/MS/MS for quantification. PK parameter values, including, but not necessarily limited to, the maximum plasma concentrations (Cmax), the time to reach the maximum concentrations (Tmax), and the area under the plasma concentration vs. time curve (AUC) from time zero to 24-hour (AUC0-24h) were determined using WinNonlin program. Table 17. […]

A further series deals with TYK2 pathway. Kind of series: IFN-γ release in NK92 cells stimulated by IL-12 (ELISA). Type of series: cell-based. Particulars: IL-12 2.5ng/mL stimulation 15hrs, IFN-γ in supernatant by ELISA. The method, then:
IFN-γ Release in NK92 Cells Stimulated by IL-12
Purpose: To evaluate the inhibition activity of TYK2 inhibitors in NK92 cells on TYK2 pathway through ELISA method.
Procedure: 1) Seeding NK92 cells into 96-well plate, cell density is 1.5E5 cells/well, 100uL/well; 2)Add prepared test articles into indicated wells, 50uL/well, and continue incubate for 1h, at 37°C; 3) After compound treatment, add 50uL/well IL-12 into indicated wells, final concentration of IL-12 is 2.5ng/mL; 4)Incubate cytokine stimulated cells at 37°C for another 15hrs in CO2 incubator; 5) After cytokine stimulation, transfer culture supernatant into a new plate and centrifuge for 5min at 350x g, and detect IFN-γ concentration in the supernatant with ELISA kit; 6) Data analysis with GrapdPad Prism6.0 software. Table 5. IC50 Values of Exemplary Compounds on TYK2 Pathway

A short description of series [5]: Brain pharmacokinetic studies in dogs. Particulars: for AUC: AUC0-4h. Type of series: in vivo, Beagle dogs. The method, then:
Pharmacokinetic profiles of test articles were evaluated in Beagle dogs. Different kinds of formulations were designed to ensure test articles fully dissolved and wouldn't precipitate in 1:10 SGF or FaSSIF dilution. The animal was restrained manually at the designated time points, approximately 500 µL of blood sample was collected via cephalic vein into K2EDTA tubes. The blood samples were maintained in wet ice first and centrifuged to obtain plasma (2000g, 4°C, 5 min) within 15 minutes post sampling. The animal was euthanized with pure […] inhalation. Shave the hair on the back of head and neck, and clean the skin of the area with iodine and 75% ethanol. Inject about 4-5 L saline from carotid artery for perfusion. Brain was collected after the perfusion fluid (saline) was gradually clarified. Dry the tissue on filtrate paper on ice, and then weigh the brain tissue and store at -70°C for later analysis. […] Table 15. Systemic Pharmacokinetic Parameters in Beagle Dogs

Where [6] appears, read: plasma, read-out: Plasma AUC0-24.
Where [7] appears, read: colon tissue, read-out: Colon AUC0-24.
The mark [8] stands for this setting: colonic contents, read-out: Colon content AUC0-24.

pIC50: −log10 of the molar value. Like-named read-outs stand apart in the source and are kept apart here. Some results are limits rather than exact numbers.

Take `COC(=O)c1cnc(NC(=O)[C@@H]2C[C@@H]2F)cc1Nc1nn(C)c2ccc(C(O)C(F)(F)F)c(OC)c12` (single isomer, unassigned) [Example 122A, Methyl 6-((1S,2S)-2-fluorocyclopropane-1-carboxamido)-4-((4-methoxy-1-methyl-5-((S*)-2,2,2-trifluoro-1-hydroxyethyl)-1H-indazol-3-yl)amino) nicotinate]: the pIC50 in the series with IFNa pSTAT1 [1] was over 10.21. In addition, in the series on Caco-2 cell lines, the “efflux ratio compared with the amide compounds 21,23,25,33,49A and BMS986165” value is recorded as “lower efflux ratio numbers”.
For `[2H]C([2H])([2H])NC(=O)c1cnc(NC(=O)C2CC2)cc1Nc1cnn2ccc([C@H](O)C(F)(F)F)c(OC)c12` [Example 7A, (S)-6-(cyclopropanecarboxamido)-4-((4-methoxy-5-(2,2,2-trifluoro-1-hydroxyethyl)pyrazolo[1,5-a]pyridin-3-yl)amino)-N-(methyl-d3)nicotinamide], in series [2] (plasma), the highest level (Cmax) was 426 ng/mL, the Tmax is 0.25 h and the half-life is 1.75 h. Further, the AUC(0-t) in series [2] (setting [6]) came to 0.599 µg·h/mL. Further, the AUC(0-t) in series [2] (setting [7]) was determined as 45.8 µg·h/mL. Moreover, the AUC(0-t) in series [2] (setting [8]) turned out to be 1430 µg·h/mL. The pIC50 in the series with IFNa pSTAT1 [3] was 8.17. Besides, in series [4] (intravenous, 1 mg/kg), the AUC was determined as 0.317 µg·h/mL, the Vd was determined as 3.3 L/kg, the clearance amounted to 53.2 mL/min/kg and the half-life is 0.84 h. In series [4] (oral, 10 mg/kg), this compound showed an AUC of 0.258 µg·h/mL, a Cmax of 31.3 ng/mL, a bioavailability of 8.1% and a half-life of 4.91 h. The pIC50 in the series with TYK2 pathway was 8.04.
In the series with TYK2 pathway, `[2H]C([2H])([2H])NC(=O)c1cnc(Nc2ccn(C)n2)cc1Nc1cnn2ccc([C@H](O)C(F)(F)F)c(OC)c12` [Example 21, (S)-4-((4-methoxy-5-(2,2,2-trifluoro-1-hydroxyethyl)pyrazolo[1,5-a]pyridin-3-yl)amino)-N-(methyl-d3)-6-((1-methyl-1H-pyrazol-3-yl)amino)nicotinamide] showed a pIC50 of 7.84.
In the series on TYK2 pathway, `[2H]C([2H])([2H])NC(=O)c1cnc(Nc2cc(C)nc(C)n2)cc1Nc1cnn2ccc([C@H](O)C(F)(F)F)c(OC)c12` [Example 25, (S)-6-((2,6-Dimethylpyrimidin-4-yl)amino)-4-((4-methoxy-5-(2,2,2-trifluoro-1-hydroxyethyl)pyrazolo[1,5-a]pyridin-3-yl)amino)-N-(methyl-d3)nicotinamide] showed a pIC50 of 8.14.
Compound `[2H]C([2H])([2H])NC(=O)c1cnc(NC(=O)C2CC2)cc1Nc1cnn2ccc([C@H](OC)C(F)(F)F)c(OC)c12` [Example 27, (S)-6-(cyclopropanecarboxamido)-4-((4-methoxy-5-(2,2,2-trifluoro-1-methoxyethyl)pyrazolo[1,5-a]pyridin-3-yl)amino)-N-(methyl-d3)nicotinamide] gave a pIC50 in the series on TYK2 pathway of 8.22.
As for `[2H]C([2H])([2H])NC(=O)c1nnc(NC(=O)C2CC2)cc1Nc1cnn2ccc([C@H](O)C(F)(F)F)c(OC)c12` [Example 30, (S)-6-(cyclopropanecarboxamido)-4-((4-methoxy-5-(2,2,2-trifluoro-1-hydroxyethyl)pyrazolo[1,5-a]pyridin-3-yl)amino)-N-(methyl-d3)pyridazine-3-carboxamide], in the series on TYK2 pathway, the pIC50 was 8.17.
As for `[2H]C([2H])([2H])NC(=O)c1cnc(NC(=O)C2CC2)cc1Nc1nn(C)c2ccc([C@H](O)C(F)(F)F)c(OC)c12` [Example 49A, (S)-6-(cyclopropanecarboxamido)-4-((4-methoxy-1-methyl-5-(2,2,2-trifluoro-1-hydroxyethyl)-1H-indazol-3-yl)amino)-N-(methyl-d3)nicotinamide], in series [2] (plasma), the Cmax came out at 1340 ng/mL, the Tmax stood at 0.25 h and the half-life is 1.03 h. Moreover, in series [2] (setting [6]), the AUC(0-t) was found to be 1.22 µg·h/mL. Also, in series [2] (setting [7]), the AUC(0-t) stood at 21.3 µg·h/mL. In series [2] (setting [8]), the AUC(0-t) is 1590 µg·h/mL. Also, the pIC50 with IFNa pSTAT1 [1] is over 10.21. In series [4] (intravenous, 2 mg/kg), this compound showed an AUC of 0.904 µg·h/mL, a Vd of 2.2 L/kg, a clearance of 38.2 mL/min/kg and a half-life of 1.04 h. In series [4] (oral, 10 mg/kg), this compound gave an AUC of 0.418 µg·h/mL, a Cmax of 74.2 ng/mL, a bioavailability of 9.25% and a half-life of 3.14 h.
As for `[2H]C([2H])([2H])O[C@@H](c1ccc2c(c(Nc3cc(NC(=O)C4CC4)ncc3C(=O)OC)nn2C)c1OC)C(F)(F)F` [Example 50B, Methyl (S)-6-(cyclopropanecarboxamido)-4-((4-methoxy-1-methyl-5-(2,2,2-trifluoro-1-(methoxy-d3)ethyl)-1H-indazol-3-yl)amino)nicotinate], the “AUC” value in series [5] (brain, Beagle dogs, iv, 2 mg/kg, solution) came to 1856 ng·h/g; in series [5] (dog, systemic (plasma), Beagle dogs, iv, 2 mg/kg, solution, read-out: AUC), 1.37 µg·h/mL. Further, the Kp in series [5] (dog, brain, Beagle dogs, iv, 2 mg/kg, solution, read-out: Brain AUC/Systemic AUC) is 1.36. Also, the “brain exposure in Dogs” value in series [5] (result in words) is listed as “good brain exposure”. In addition, the pIC50 in the series on IFNa pSTAT1 [3] is 8.43.
On to `[2H]C([2H])([2H])NC(=O)c1cnc(NC(=O)C2CC2)cc1Nc1nn(C)c2ccc([C@H](OC([2H])([2H])[2H])C(F)(F)F)c(OC)c12` [Example 55A, (S)-6-(cyclopropanecarboxamido)-4-((4-methoxy-1-methyl-5-(2,2,2-trifluoro-1-(methoxy-d3)ethyl)-1H-indazol-3-yl)amino)-N-(methyl-d3)nicotinamide], for which, in the series with IFNa pSTAT1 [1], the pIC50 is 9.72. In series [4] (intravenous, 3 mg/kg), the AUC was 3.65 µg·h/mL, the Vd was determined as 2.05 L/kg, the clearance was determined as 13.6 mL/min/kg and the half-life was 2.56 h. In series [4] (oral, 5 mg/kg), this compound gave an AUC of 2.95 µg·h/mL, a Cmax of 409 ng/mL, a bioavailability of 48.6% and a half-life of 2.67 h.

For the origin of these results see patent publication EP4813463A2, “TYK2 INHIBITORS AND COMPOSITIONS AND METHODS THEREOF” (Lynk Pharmaceuticals Co. Ltd., priority 2023, dated 2024).
